From publication doi:10.1101/2025.04.10.648175v1 (biorxiv, 2025)

Tests used:
[1] = biological target: AzoTag1; assay: isothermal titration calorimetry; assay type: binding; conditions: 20 mM HEPES-NaOH, 150 mM NaCl, pH 7.5, 25 °C, 0.5% DMSO; one-site model
[2] = biological target: AzoTag16; assay: isothermal titration calorimetry; assay type: binding; conditions: 20 mM HEPES-NaOH, 150 mM NaCl, pH 7.5, 25 °C, 0.8% DMSO; one-site model

| Compound | Kd [1] | Kd [2] |
| --- | --- | --- |
| CCNC(=O)c1cc(F)c(/N=N\c2c(F)cc(C(=O)NCCOCCOCC(=O)NC)cc2F)c(F)c1 [compound 1, cis-Et-FAzo] | 805 ± 22.6 nM | – |
| CNC(=O)COCCOCCNC(=O)c1cc(F)c(/N=N\c2c(F)cc(C(=O)NCCC(=O)O)cc2F)c(F)c1 [compound 2, cis-Ca-FAzo] | – | 14.03 ± 0.02 nM |
